Laboratory results reported in US10508147B2, “Anti-nodal antibodies and methods of using same” (ANN AND ROBERT H. LURIE CHILDREN'S HOSPITAL OF CHICAGO, priority 2014, dated 2019).
“Also recorded” adds a separate entry of the source.

How the values were obtained:
[1] = tested on: A375SM human melanoma cell line; experiment: Western blot of A375SM cells treated with BRAFi (dabrafenib) or 3D1; assay type: cell-based; settings: 72 hr
Description: To determine the level of Nodal expression in brain, kidney, liver, pancreas, heart and skeletal muscle ready to use adult tissue extracts for Western blotting (WB) were purchased from Santa Cruz Biotechnology. For WB experiments of cell lines, whole cell lysates were prepared and quantified. SDS-PAGE gel electrophoresis and WB were performed using standard techniques. PVDF membranes were blocked in 5% non-fat milk or 5% BSA and antibodies diluted in either 5% non-fat milk or 5% bovine serum albumin overnight at 4° C., depending on the manufacturer's recommendations. Signal was detected using West Pico chemiluminescence reagent (Thermo Fisher) and exposure to x-ray film.

[2] = tested on: A375SM human metastatic melanoma cells; experiment: A375SM orthotopic xenograft in Nude mice; assay type: in vivo
Description: Experiments were carried out to determine the in vivo effects of 3D1 mAb on primary melanoma. To this end, 500,000 C8161 cells were injected subcutaneously in Nude mice. Palpable tumors were then injected directly with either 700 μg of total 3D1 mAb or IgG control antibody (alternate day intratumoral injection of 100 μg over 14 days). Mice were then sacrificed and subcutaneous tumors harvested and processed as previously described. To evaluate the effect of 3D1 mAb in the presence of the BRAF(V600E) mutation, a third orthotopic xenograft model was established in Nude mice via subcutaneous injection of approximately 150,000 A375SM human metastatic melanoma cells. Mice were treated IP with 3D1 mAb or IgG control, as described above, or 3 mg/kg of dabrafenib.
Four micron thick, formalin fixed, paraffin embedded tissue sections were prepared and immunohistochemistry was carried out on a Dako Plus autostainer (DAKO, Inc, Carpenteria, Calif.). Following antigen retrieval and blocking steps, sections were incubated in primary antibody for 60 mins, followed by appropriate biotinylated secondary antibody (Biocare Medical, Conrad, Calif.), and then streptavidin-horseradish peroxidase (Thermo Scientific Lab Vision). Color was developed with 3,3′-diaminobenzidine substrate (Thermo Scientific Lab Vision) and sections were counterstained with hematoxylin (Biocare Medical, LLC). As a negative control, adjacent serial sections were incubated with species appropriate irrelevant IgG (Jackson ImmunoResearch Labs) at the same concentration as primary antibodies. Similar to the lung tumor burden evaluation described above, mean percentage of positive staining±SEM was determined by 2 different observers, each calculating the ratio of positive cells/total number of cells×100 for 4 separate high power fields (63× objective) from at least 2 different mice per group.

3D1 mAb = experiment: ELISA epitope mapping and specificity assay of coated peptides probed with 3D1; assay type: binding, mouse; settings: peptides coated at 1.0 μg/mL; 3D1 mAb 1.0 μg/mL
Description: Residues underlying the binding between 3D1 and Nodal were investigated by epitope mapping using a set of Nodal synthetic peptides (See FIG. 9). […] Peptides were immobilized at 1 μg/mL and probed with 3D1 at […]. Data were normalized to the binding of the peptide hNODAL (44-69) wild-type (WT). […] Most interactions were established with C43, P46, V47, E49, E50. The effect of Y58 can be on the conformation of the peptide.
Peptides used for the epitope mapping and for the specificity assay of the 3D1 mAb were coated at 1.0 μg/mL diluted in PBS; 3D1 mAb, dissolved in PBS, was used as primary antibody at 1.0 μg/mL.

endogenous Nodal = experiment: Western blot competition between 3D1 antigen peptide and endogenous Nodal in human embryonic stem cell lysates; assay type: binding; settings: 3D1 4 μg/mL, hNodal(44-56) 10 μg/mL; H9 and H14 hESC lysates
Description: Thirty micrograms of H9 and H14 human embryonic stem cell total protein lysates, obtained as previously described, were separated on a 15% SDS-PAGE gel under reducing conditions and the resolved proteins were transferred onto a PVDF membrane. 50 ng of rhNodal protein were used as positive control. A Western blotting procedure was conducted: membranes were blocked, then probed with the 3D1 alone at 4.0 μg/mL in 2.5% NFDM in TBS-T and with the 3D1 mAb at 4.0 μg/mL pre-incubated with its antigen, the hNodal(44-56) peptide at 10 μg/mL. […] Blots were developed with Enhanced Chemiluminescence Western Blot Substrate (Pierce, Rockford, Ill., USA) following the manufacturer's instructions and were acquired by using a Chemidoc XRS video densitometer (Bio-Rad, Hercules, Calif., USA).

ELISA signal for binding to 3D1 (3D1 mAb)	Compound	Nodal expression [1]	ERK1/2 activity (P-ERK1/2) ([1]; dabrafenib 10 nM)	mean percentage (±SEM) of nuclear P-Smad2 ([2]; IHC, N=4)	tumor volumes ([2]; after 8 days, vs IgG control)	staining of endogenous Nodal by 3D1 after pre-incubation with the peptide (endogenous Nodal)
	CC(C)(C)c1nc(-c2cccc(NS(=O)(=O)c3c(F)cccc3F)c2F)c(-c2ccnc(N)n2)s1 [dabrafenib]	relatively unaffected; also recorded: only minimally affected	significantly reduced	68.7%±6.3%	trend towards reduced tumor volumes	
bound with similar efficiency	CEGECPNPVGEEFHPTNHAYIQSLLKRYQPHRVPSTC [hNodal(39-75)]					
strongest signal	PNPVGEEFHPTNH [hNodal(44-56)]					no longer detectable
